Earlier results on one sequence are cited in patent US9687529B2, “Method of controlling coagulation” (Duke University, priority 2011, dated 2017).

pKd: −log10 of the molar value.

By pKd is commonly meant the negative decadic logarithm of the Kd, by convention in mol/L.

The conditions of data set [1]: cited from earlier work.
Another data set relates to clot formation in plasma. The conditions noted are these: concentration ten-fold higher than recommended for CPB; cited from earlier work.
The next data set addresses thrombin (Homo sapiens, UniProt P00734). The conditions noted are these: cited from earlier work.

For FPRPGGGGNGDFEEIPEEYL [bivalirudin], the in vivo half-life result in data set [1] is listed as “about 30 minutes”. Further, the “clot propagation and strength (in words)” value in the data set with clot formation in plasma is “did not significantly reduce clot propagation and strength”. Further, the pKd on thrombin is around 8.72.
